ChEMBL document CHEMBL1201862, “PubChem BioAssay data set” (2004)
Calls of active or inactive are those of the source.

Key:
Procathepsin L = Procathepsin L (Homo sapiens, UniProt P07711); test: CTSL1 protease inhibition – biochemical, QFRET, 1536-well, counter-screen for M1/M17 aminopeptidase inhibitor project, dose response (AID 2214)
Aspartyl aminopeptidase = molecular target: T1, Aspartyl aminopeptidase (Plasmodium falciparum 3D7, UniProt Q8I2J3); test: Counterscreen for inhibitors of M1 and M17 aminopeptidases: QFRET-based biochemical high throughput dose response assay for inhibitors of the Plasmodium falciparum M18 Aspartyl Aminopeptidase (PFM18AAP). [Related PubChem assays: 1619 (Screening assay (M17LAP inhibitors).), 1445 (Screening assay (M1AAP inhibitors).)]
T1 sequence (Q8I2J3 whole entry): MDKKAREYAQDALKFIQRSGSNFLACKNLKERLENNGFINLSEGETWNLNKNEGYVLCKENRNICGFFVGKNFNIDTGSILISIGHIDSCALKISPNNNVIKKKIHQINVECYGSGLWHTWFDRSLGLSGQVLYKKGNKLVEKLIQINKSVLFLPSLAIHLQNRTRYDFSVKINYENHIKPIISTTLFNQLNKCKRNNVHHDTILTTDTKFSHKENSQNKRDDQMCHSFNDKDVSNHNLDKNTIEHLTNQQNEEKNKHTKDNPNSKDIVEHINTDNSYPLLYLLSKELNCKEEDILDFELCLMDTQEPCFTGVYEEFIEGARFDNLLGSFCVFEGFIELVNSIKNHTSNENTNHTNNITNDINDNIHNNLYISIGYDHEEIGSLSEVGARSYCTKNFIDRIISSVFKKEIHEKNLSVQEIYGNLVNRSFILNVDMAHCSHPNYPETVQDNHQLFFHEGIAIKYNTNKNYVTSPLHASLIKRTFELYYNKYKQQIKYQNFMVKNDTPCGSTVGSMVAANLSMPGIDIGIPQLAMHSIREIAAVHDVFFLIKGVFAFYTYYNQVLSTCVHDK

Leucine aminopeptidase = molecular target: T2, Leucine aminopeptidase (Plasmodium falciparum 3D7, UniProt Q8IL11); test: P. falciparum M17LAP inhibitors, primary screen, biochemical, fluorogenic H-Leu-NHMec substrate, 1536-well (AID 1619); format: functional
T2 sequence (Q8IL11 whole entry): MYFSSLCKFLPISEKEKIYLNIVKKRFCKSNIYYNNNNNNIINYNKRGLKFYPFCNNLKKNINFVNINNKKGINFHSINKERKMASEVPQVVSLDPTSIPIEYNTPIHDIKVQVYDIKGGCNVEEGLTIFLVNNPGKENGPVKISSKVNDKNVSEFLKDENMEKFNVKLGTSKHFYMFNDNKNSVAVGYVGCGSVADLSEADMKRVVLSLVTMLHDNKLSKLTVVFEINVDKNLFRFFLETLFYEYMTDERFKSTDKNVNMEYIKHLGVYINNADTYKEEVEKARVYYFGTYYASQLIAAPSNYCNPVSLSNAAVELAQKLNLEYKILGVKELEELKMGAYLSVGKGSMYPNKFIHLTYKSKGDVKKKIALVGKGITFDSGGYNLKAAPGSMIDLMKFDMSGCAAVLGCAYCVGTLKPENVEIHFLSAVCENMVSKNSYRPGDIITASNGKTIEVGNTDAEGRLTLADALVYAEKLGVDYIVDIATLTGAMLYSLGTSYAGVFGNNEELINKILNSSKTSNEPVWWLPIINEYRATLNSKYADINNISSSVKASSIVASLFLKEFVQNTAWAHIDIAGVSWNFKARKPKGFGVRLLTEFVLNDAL

Streptococcus = test: GAS UMAA2166 growth inhibition – luminescence, BacTiterGlo, counter-screen for streptokinase expression inhibitor project, dose response (AID 1915); format: functional, organism-based; details: Streptococcus;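 also: potency for reduction of bacterial viability or growth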
cells [1] = format: functional, cell-based
[2] = system: Streptococcus sp. 'group A'; test: Streptococcus pyogenes SK(-)GAS viability under kanamycin – luminescence, BacTiterGlo, confirmation, counter-screen for streptokinase expression inhibitor project, dose response (AID 1900); format: functional, organism-based; details: Streptococcus sp. 'group A'
[3] = Trypanosoma cruzi growth suppression in host cells – NIH3T3 host cells, beta-gal luminescence, confirmation (AID 2044); format: functional, cell-based;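 also: intracellular parasites grown in NIH/3T3 mouse fibroblasts as host cells; luminescent beta-galactosidase reporter signal from transgenic T. cruzi replicating inside host cells; inhibitors lower the luminescence signal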
Vero = test: mammalian cell viability reduction – secondary assay, cytotoxicity control for West Nile virus antiviral project, dose response (AID 1650); format: functional; details: Chlorocebus sabaeus
[4] = microbe, parasite or virus in culture; format: functional; details: Mycobacterium tuberculosis
[5] = NIH3T3 cell viability loss – ATP luminescence, mouse fibroblasts, counter-screen, dose response (AID 2010); format: functional, cell-based;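 also: cells exposed to compound for about 90 hours before reading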
cells [6] = format: functional, cell-based; remark: listed apart in the source
Prothrombin = Prothrombin (Homo sapiens, UniProt P00734); test: Thrombin 1536 HTS Dose Response Confirmation. [Related pubchem assays: 1046 (Thrombin 1536 HTS; hits were confirmed in this assay)]; format: functional

Chain of Procathepsin L (P07711 whole entry): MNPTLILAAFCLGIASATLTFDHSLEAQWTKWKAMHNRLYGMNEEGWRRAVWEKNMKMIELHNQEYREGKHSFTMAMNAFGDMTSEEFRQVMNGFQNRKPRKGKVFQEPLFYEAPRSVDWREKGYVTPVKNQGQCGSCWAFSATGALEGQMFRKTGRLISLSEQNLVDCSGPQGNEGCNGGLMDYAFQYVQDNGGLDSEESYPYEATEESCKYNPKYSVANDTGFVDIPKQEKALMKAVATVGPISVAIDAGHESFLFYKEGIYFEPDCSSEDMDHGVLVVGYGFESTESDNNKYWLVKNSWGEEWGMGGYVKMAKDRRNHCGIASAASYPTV

| Compound | IC50 (Procathepsin L) | IC50 (Aspartyl aminopeptidase) | IC50 (Leucine aminopeptidase) | CC50 (Vero) | also measured |
| --- | --- | --- | --- | --- | --- |
| Cc1ccc(-n2c(C)cc(C(=O)COC(=O)c3ccc[nH]c3=O)c2C)cc1 | > 59.6 µM (not active) | > 73.5 µM (not active) | 1.22 µM (active) | – | – |
| Cc1cccc(C)c1Nc1c(-c2ccccn2)nc2ccccn12 | – | – | – | 4.16 µM (active) | EC50 (Streptococcus): 6.43 µM (active); EC50 (cells [1]): 92.4 µM (active); EC50 [2]: 2.52 µM (active); EC50 [3]: 1.45 µM (active); CC50 [4]: 3.91 µM (active); EC50 [5]: 6.81 µM (active); EC50 (cells [6]): > 350 µM (not active) |
| CCc1cc2ccccc2nc1SCC(=O)Nc1cc(OC)c(OC)cc1C(=O)O | > 59.6 µM (not active) | > 73.5 µM (not active) | < 1 µM (active) | – | – |
| O=C(Nc1ccccc1-c1nc2ccccc2s1)c1ccco1 | – | – | – | 12.8 µM (active) | – |
| CCCC(C)C(=O)Nc1ccc(F)c(Cl)c1 (stereo unspecified) | – | – | – | – | IC50 (Prothrombin): > 50 µM (not active) |
